Reference: US7687079B2, “Methods of treating ileus” (priority 2002, dated 2010)

Experiments:
IL-1β mRNA = IL-1β mRNA in muscularis after IM (real time RT-PCR); format: in vivo, mouse; settings: IM + CO vs IM, 6 hr
Protocol: Pro- and anti-inflammatory gene expression was determined by real time RT-PCR. The small intestinal muscularis externa was collected at 4 time points (3, 6, 12, and 24 hr) postoperatively and snap frozen in liquid nitrogen. Total RNA extraction was performed using the guanidium-thiocyanate phenol-chloroform extraction method as described in Eskandari et al. (Id.) RNA pellets were resuspended in RNA-secure resuspension solution (Ambion Inc., Austin, Tex.), followed by removal of potential contaminating DNA by treatment with DNase I (DNA-Free Kit, Ambion Inc., Austin, Tex.). Equal aliquots (5 μg) of total RNA from each sample were quantified by spectrophotometry (wavelength […]). Peak mRNA expression was quantified in duplicate by SYBR Green two-step, real-time RT-PCR. β-actin was used as the endogenous reference. […] Real-time PCR data were plotted as the ΔRn fluorescence signal versus the cycle number. […] Quantification of mRNA expression was normalized to β-actin and calculated relative to control using the comparative CT method.
(§1) To exclude PCR amplification of contaminating genomic DNA, RT-negative controls (samples containing RNA which was not reverse transcribed) were included in each PCR reaction. […] PCR amplification efficiency of each target cDNA was measured by determining the colinearity of serial dilutions. […]

[1] = tested on: IL-6, IL-1β, TNFα, ICAM-1, COX-2, iNOS, IL-10 mRNA; test: real time RT-PCR of inflammatory mediators, CO alone without surgery; format: in vivo, rat; settings: inhalation of CO alone (no surgery)
Protocol: The effects of inhalation of CO on transplant-induced pro-inflammatory and anti-inflammatory gene expression was assessed in muscularis extracts by RT-PCR. Muscularis extemae was collected from normal intestine and transplanted grafts 4 hours postoperatively and snap frozen in liquid nitrogen. This time point falls within the range of maximum inflammatory mediator expression that occurs between 3 and 6 hours following abdominal incision. Total RNA extraction was performed using the guanidium-thiocyanate phenol-chloroform extraction method as described previously (Eskandari et al., Am. J. Clin. Pathol. 75(3):367-370 (1997)). RNA pellets were resuspended in RNA-secure resuspension solution (Ambion Inc., Austin, Tex.), followed by removal of potentially contaminating DNA by treatment with DNase I (DNA-Free Kit, Ambion Inc., Austin, Tex.). Equal aliquots (5 μg) of total RNA from each sample were quantified by spectrophotometry (wavelength […]) and aliquoted at a concentration of 40 ng/μl. Peak mRNA expression was quantified in duplicate by SYBR Green two-step, real-time RT-PCR. […] Real-time PCR data were plotted as the ΔRn, fluorescence signal versus the cycle number. […] Quantification of mRNA expression was normalized to GAPDH and calculated relative to control using the comparative CT method (Schmittgen et al., J. Biochem. Biophys. Methods 46(1-2):69-8 (2000)). […]

iNOS mRNA = iNOS mRNA in muscularis after IM (real time RT-PCR); format: in vivo, mouse; settings: for iNOS expression, fold increase: naive mice
Protocol: Pro- and anti-inflammatory gene expression was determined by real time RT-PCR. The small intestinal muscularis externa was collected at 4 time points (3, 6, 12, and 24 hr) postoperatively and snap frozen in liquid nitrogen. Total RNA extraction was performed using the guanidium-thiocyanate phenol-chloroform extraction method as described in Eskandari et al. (Id.) RNA pellets were resuspended in RNA-secure resuspension solution (Ambion Inc., Austin, Tex.), followed by removal of potential contaminating DNA by treatment with DNase I (DNA-Free Kit, Ambion Inc., Austin, Tex.). Equal aliquots (5 μg) of total RNA from each sample were quantified by spectrophotometry (wavelength […]). Peak mRNA expression was quantified in duplicate by SYBR Green two-step, real-time RT-PCR. β-actin was used as the endogenous reference. Aliquoted RNA (40 ng) was subjected to first-strand complementary DNA (cDNA) synthesis using random hexamers (PE applied Biosystems, Foster City, Calif.) and Super Script II (Life Technologies, Rockville, Md.). Primers were taken from the literature or designed according to published sequences (Table 3). PCR reaction mixture was prepared using SYBR Green PCR Core Reagents (PE Applied Biosystems). Each sample was estimated in duplicate using the conditions recommended by the manufacturer. Real-time PCR data were plotted as the ΔRn fluorescence signal versus the cycle number. An arbitrary threshold was set to the midlinear portion of the log ΔRn cycle plot. The threshold cycle (CT) is defined as the cycle number at which the ΔRn, crosses this threshold. Quantification of mRNA expression was normalized to β-actin and calculated relative to control using the comparative CT method.
as §1, with “reaction. Melting curve analyses were performed for each reaction to ensure amplification of specific product.” for “reaction.”

In the case of [C-]#[O+] [CO, carbon monoxide], the “peak IL-1β mRNA expression” value (IL-1β mRNA) is reported as “significantly inhibited”, the “expression of any of the mediators studied” value [1] is reported as “no effect” and the iNOS expression (iNOS mRNA; naive mice exposed to CO) is reported as “no effect”. The “iNOS expression, fold increase” value (iNOS mRNA; CO 3 hr) was 1.04±0.19 fold and the “iNOS expression, fold increase” value (iNOS mRNA; CO 6 hr) was 1.26±0.19 fold.
